Our source for the EC50 values is US9758527B2, “Cyclohexene derivative, preparation method therefor, and pharmaceutical composition for preventing or treating metabolic diseases, containing same as active ingredient” (HYUNDAI PHARM CO., LTD., priority 2014, dated 2017).

The structures appear in SMILES notation. Read-outs that look alike come from different tables or passages of the source.

The experiment addresses T1, G protein-coupled receptor 119 (GPR-119) (Mesocricetus auratus, UniProt A0A1U8CD06).
T1 construct: hamster-derived β-cells containing G protein-coupled receptor 119 (GPR-119), HIT-T15 cells; host or cells: HIT-T15 (hamster pancreatic β-cells)
T1 sequence (A0A1U8CD06 1-334): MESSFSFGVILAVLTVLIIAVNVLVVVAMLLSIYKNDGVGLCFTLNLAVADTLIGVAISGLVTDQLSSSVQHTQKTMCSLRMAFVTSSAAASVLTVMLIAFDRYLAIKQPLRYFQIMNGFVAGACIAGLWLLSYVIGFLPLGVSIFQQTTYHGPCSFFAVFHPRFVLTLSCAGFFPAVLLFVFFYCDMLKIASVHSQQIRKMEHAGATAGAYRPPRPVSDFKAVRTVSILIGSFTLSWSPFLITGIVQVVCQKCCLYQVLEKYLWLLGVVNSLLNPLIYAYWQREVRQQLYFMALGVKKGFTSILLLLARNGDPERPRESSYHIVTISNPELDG
Kind of experiment: Evaluation of cAMP activity in HIT-T15 cells (HTRF cAMP dynamic kit). Type of experiment: cell-based, hamster. The settings on record: cAMP activation. The method, then:
To check whether the cyclohexene derivatives according to the present invention activate cyclic adenosine monophosphate (cAMP), experiments were carried out, as follows.
The HIT-T15 cells were plated on a 96-well plate at 60,000 cells per well. On the next day of plating, the cells were treated with a varying concentration of each of the example compounds according to the present invention, and incubated at 37° C. for an hour. In this case, each of the treated compounds was used at six concentrations, ranging from […], to treat the cells.
The cyclic adenosine monophosphate (cAMP) activity was measured according to the manufacturer's instruction using a cAMP dynamic kit commercially available from Cis Bio Inc. (Bedford, Mass.). The cells were lysed, and a level of cAMP was determined by a competitive immunoassay using D2-labeled cAMP and a cryptate-labeled anti-cAMP antibody. Fluorescence was read in Flex Station (Molecular Devices). […] Unlabeled cAMP in the cell lysate competed with the D2-labeled cAMP against the cryptate-labeled antibody. Since a decrease in the measured intensity of the FRET signals represents a level of cAMP in the cells, the cAMP activities of the compounds are calculated as a change in FRET signals by adjusting an amount of dimethyl sulfoxide (DMSO).
For orientation: TR-FRET usually uses a lanthanide donor and a delayed reading to cut background.

Setting [1] is: 1 h at 37° C., six concentrations, read-out: EC50.

The EC50 is the concentration at which the effect is half-maximal. `CC(C)(C)OC(=O)N1CCC(COc2ccc(C3=CCC(C(=O)NC4CC4)CC3)cc2)CC1` (stereo not shown) [Example 2, tert-butyl 4-((4-(4-(cyclopropylcarbamoyl)cyclohex-1-enyl)phenoxy)methyl)piperidine-1-carboxylate]: the 50% effective concentration (EC50) is, setting by setting: under setting [1], 40 nM; (read-out: EC50 value) not above 50 nM.
`CC(C)(C)OC(=O)N1CCC(COc2ccc(C3=CCC(C(=O)NCC(F)F)CC3)cc2)CC1` (stereo not shown) [Example 3, tert-butyl 4-((4-(4-(2,2-difluoroethylcarbamoyl)cyclohex-1-enyl)phenoxy)methyl)piperidine-1-carboxylate]: the EC50 is 34 nM under setting [1] and not above 50 nM (read-out: EC50 value).
Regarding `CC(C)(C)OC(=O)N1CCC(COc2ccc(C3=CCC(C(=O)NC[C@@H](O)CO)CC3)cc2)CC1` (stereo partly drawn) [Example 4, tert-butyl 4-((4-(4-((R)-2,3-dihydroxypropylcarbamoyl)cyclohex-1-enyl)phenoxy)methyl)piperidine-1-carboxylate], the EC50 under setting [1] is 150 nM.
With `CC(C)(C)OC(=O)N1CCC(COc2ccc(C3=CCC(C(=O)N4CC[C@@H](O)C4)CC3)cc2)CC1` (stereo partly drawn) [Example 5, tert-butyl 4-((4-(4-((R)-3-hydroxypyrrolidine-1-carbonyl)cyclohex-1-enyl)phenoxy)methyl)piperidine-1-carboxylate], the EC50 by setting is: under setting [1], 29 nM; (read-out: EC50 value) not above 50 nM.
With `CN(CCCO)C(=O)C1CC=C(c2ccc(OCC3CCN(C(=O)OC(C)(C)C)CC3)cc2)CC1` (stereo not shown) [Example 6, tert-butyl 4-((4-(4-((3-hydroxypropyl)(methyl)carbamoyl)cyclohex-1-enyl)phenoxy)methyl)piperidine-1-carboxylate], the EC50 is 38 nM under setting [1] and not above 50 nM (read-out: EC50 value).
In the same order, the values of `CC(C)(C)OC(=O)N1CCC(COc2ccc(C3=CCC(C(=O)N4CCOCC4)CC3)cc2)CC1` (stereo not shown) [Example 7, tert-butyl 4-((4-(4-(morpholine-4-carbonyl)cyclohex-1-enyl)phenoxy)methyl)piperidine-1-carboxylate] are 13 nM and not above 50 nM.
On to `CCc1cnc(N2CCC(COc3ccc(C4=CCC(C(=O)N[C@H](C)CO)CC4)cc3)CC2)nc1` (stereo partly drawn) [Example 8, 4-(4-((1-(5-ethylpyrimidin-2-yl)piperidin-4-yl)methoxy)phenyl)-N-((R)-1-hydroxypropan-2-yl)cyclohex-3-enecarboxamide], for which the EC50 under setting [1] worked out at 90 nM.
As for `CCc1cnc(N2CCC(COc3ccc(C4=CCC(C(=O)NCCCO)CC4)cc3)CC2)nc1` (stereo not shown) [Example 9, 4-(4-((1-(5-ethylpyrimidin-2-yl)piperidin-4-yl)methoxy)phenyl)-N-(3-hydroxypropyl)cyclohex-3-enecarboxamide], the EC50 under setting [1] was determined as 75 nM.
The same measure, in the same setting: with `CC(C)(C)OC(=O)N1CCC(COc2ccc(C3=CCC(C(=O)NC[C@@H](O)CO)CC3)nc2)CC1` (stereo partly drawn) [Example 10, tert-butyl 4-((6-(4-((R)-2,3-dihydroxypropylcarbamoyl)cyclohex-1-enyl)pyridin-3-yloxy)methyl)piperidine-1-carboxylate] the figure was 500 nM; with `C[C@@H](CO)NC(=O)C1CC=C(c2ccc(OCC3CCN(C(=O)OC(C)(C)C)CC3)cn2)CC1` (stereo partly drawn) [Example 11, tert-butyl 4-((6-(4-((S)-1-hydroxypropan-2-ylcarbamoyl)cyclohex-1-enyl)pyridin-3-yloxy)methyl)piperidine-1-carboxylate], 110 nM.
With `CCc1cnc(N2CCC(COc3ccc(C4=CCC(C(=O)NC[C@@H](O)CO)CC4)cc3)CC2)nc1` (stereo partly drawn) [Example 12, N-((R)-2,3-dihydroxypropyl)-4-(4-((1-(5-ethylpyrimidin-2-yl)piperidin-4-yl)methoxy)phenyl)cyclohex-3-enecarboxamide], under setting [1], the EC50 turned out to be 80 nM.
Consider `CCc1cnc(N2CCC(COc3ccc(C4=CCC(C(=O)N5CCOCC5)CC4)cc3)CC2)nc1` (stereo not shown) [Example 13, (4-(4-((1-(5-ethylpyrimidin-2-yl)piperidin-4-yl)methoxy)phenyl)cyclohex-3-enyl)(morpholino)methanone], for which the EC50 by setting is: under setting [1], 13 nM; (read-out: EC50 value) not above 50 nM.
Consider `CCc1cnc(N2CCC(COc3ccc(C4=CCC(C(=O)NC(CO)CO)CC4)cc3)CC2)nc1` (stereo not shown) [Example 15, N-(1,3-dihydroxypropan-2-yl)-4-(4-((1-(5-ethylpyrimidin-2-yl)piperidin-4-yl)methoxy)phenyl)cyclohex-3-enecarboxamide], for which the EC50 under setting [1] was determined as 370 nM.
In the case of `CCc1cnc(N2CCC(COc3ccc(C4=CCC(C(=O)N5CC[C@@H](O)C5)CC4)cc3)CC2)nc1` (stereo partly drawn) [Example 16, (4-(4-((1-(5-ethylpyrimidin-2-yl)piperidin-4-yl)methoxy)phenyl)cyclohex-3-enyl)((R)-3-hydroxypyrrolidin-1-yl)methanone], the EC50 was 13 nM under setting [1] and not above 50 nM (read-out: EC50 value).
Turning to `CC(C)c1noc(N2CCC(COc3ccc(C4=CCC(C(=O)NC[C@@H](O)CO)CC4)cc3)CC2)n1` (stereo partly drawn) [Example 17, N-((R)-2,3-dihydroxypropyl)-4-(4-((1-(3-isopropyl-1,2,4-oxadiazol-5-yl)piperidin-4-yl)methoxy)phenyl)cyclohex-3-enecarboxamide], the EC50 under setting [1] is 85 nM.
Still for that read-out and setting: with `CC(C)c1noc(N2CCC(COc3ccc(C4=CCC(C(=O)NC[C@H](O)CO)CC4)cc3)CC2)n1` (stereo partly drawn) [Example 18, N-((S)-2,3-dihydroxypropyl)-4-(4-((1-(3-isopropyl-1,2,4-oxadiazol-5-yl)piperidin-4-yl)methoxy)phenyl)cyclohex-3-enecarboxamide] the figure was 170 nM; with `CC(C)c1noc(N2CCC(COc3ccc(C4=CCC(C(=O)N[C@@H](C)CO)CC4)cc3)CC2)n1` (stereo partly drawn) [Example 19, N-((S)-1-hydroxypropan-2-yl)-4-(4-((1-(3-isopropyl-1,2,4-oxadiazol-5-yl)piperidin-4-yl)methoxy)phenyl)cyclohex-3-enecarboxamide], 110 nM; with `CC(C)c1noc(N2CCC(COc3ccc(C4=CCC(C(=O)N[C@H](C)CO)CC4)cc3)CC2)n1` (stereo partly drawn) [Example 20, N-((R)-1-hydroxypropan-2-yl)-4-(4-((1-(3-isopropyl-1,2,4-oxadiazol-5-yl)piperidin-4-yl)methoxy)phenyl)cyclohex-3-enecarboxamide], 90 nM.
With `CCc1cnc(N2CCC(COc3ccc(C4=CCC(C(=O)N(C)CCO)CC4)cc3)CC2)nc1` (stereo not shown) [Example 21, 4-(4-((1-(5-ethylpyrimidin-2-yl)piperidin-4-yl)methoxy)phenyl)-N-(2-hydroxyethyl)-N-methylcyclohex-3-enecarboxamide], the EC50 was 16 nM under setting [1] and not above 50 nM (read-out: EC50 value).
`CC(C)c1noc(N2CCC(COc3ccc(C4=CCC(C(=O)NCC(C)(C)CO)CC4)cc3)CC2)n1` (stereo not shown) [Example 22, N-(3-hydroxy-2,2-dimethylpropyl)-4-(4-((1-(3-isopropyl-1,2,4-oxadiazol-5-yl)piperidin-4-yl)methoxy)phenyl)cyclohex-3-enecarboxamide]: the EC50 reads like this: under setting [1], 41 nM; (read-out: EC50 value) not above 50 nM.
Take `CC(C)c1noc(N2CCC(COc3ccc(C4=CCC(C(=O)NC(CO)CO)CC4)cc3)CC2)n1` (stereo not shown) [Example 23, N-(1,3-dihydroxypropan-2-yl)-4-(4-((1-(3-isopropyl-1,2,4-oxadiazol-5-yl)piperidin-4-yl)methoxy)phenyl)cyclohex-3-enecarboxamide]: the EC50 under setting [1] was determined as 160 nM.
Same read-out and setting: the result for `C[C@@H](CO)NC(=O)C1CC=C(c2ccc(OCC3CCN(C(=O)OC(C)(C)C)CC3)nc2)CC1` (stereo partly drawn) [Example 24, tert-butyl 4-((5-(4-((S)-1-hydroxypropan-2-ylcarbamoyl)cyclohex-1-enyl)pyridin-2-yloxy)methyl)piperidine-1-carboxylate] reads 260 nM; that for `C[C@H](CO)NC(=O)C1CC=C(c2ccc(OCC3CCN(C(=O)OC(C)(C)C)CC3)nc2)CC1` (stereo partly drawn) [Example 25, tert-butyl 4-((5-(4-((R)-1-hydroxypropan-2-ylcarbamoyl)cyclohex-1-enyl)pyridin-2-yloxy)methyl)piperidine-1-carboxylate], 210 nM.
Still for that read-out and setting: with `C[C@H](O)CNC(=O)C1CC=C(c2ccc(OCC3CCN(C(=O)OC(C)(C)C)CC3)nc2)CC1` (stereo partly drawn) [Example 26, tert-butyl 4-((5-(4-((S)-2-hydroxypropylcarbamoyl)cyclohex-1-enyl)pyridin-2-yloxy)methyl)piperidine-1-carboxylate] the figure was 250 nM; with `C[C@@H](O)CNC(=O)C1CC=C(c2ccc(OCC3CCN(C(=O)OC(C)(C)C)CC3)nc2)CC1` (stereo partly drawn) [Example 27, tert-butyl 4-((5-(4-((R)-2-hydroxypropylcarbamoyl)cyclohex-1-enyl)pyridin-2-yloxy)methyl)piperidine-1-carboxylate], 310 nM.
